From the supplement of paper PMC10307832

How the values were obtained:
Experiment in all cases: relative viability (nuclei count vs DMSO), 5 days (fraction); higher = more cells survive
[1] = tested on: NCI-H1993
Procedure, shortened: (§1)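 Relative viability divides the nuclei count in treated wells by that in vehicle wells. Lung cancer cell lines were seeded in 1536-well plates, dosed by pin tool the next day, and fixed and stained after 5 days in one step with final 0.05% Triton X-100, 1% formaldehyde and 1 ug/ml Hoechst. Dosing was a single drug or a fixed anchor-drug dose plus five library-drug doses (not always all listed) in √10 steps, and values are medians of duplicate plates imaged at 4×.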

[2] = tested on: NCI-H460
Procedure, shortened: as §1

[3] = tested on: EMC-BAC-2
Procedure, shortened: as §1

[4] = tested on: NCI-H1793
Procedure, shortened: as §1

[5] = tested on: PC-14
Procedure, shortened: as §1

[6] = tested on: NCI-H1944
Procedure, shortened: as §1

[7] = tested on: NCI-H1355
Procedure, shortened: as §1

[8] = tested on: NCI-H1975
Procedure, shortened: as §1

[9] = tested on: NCI-H2126
Procedure, shortened: as §1

[10] = tested on: NCI-H441
Procedure, shortened: as §1

[11] = tested on: NCI-H647
Procedure, shortened: as §1

[12] = tested on: NCI-H2347
Procedure, shortened: as §1

[13] = tested on: NCI-H1666
Procedure, shortened: as §1

[14] = tested on: LCLC-97TM1
Procedure, shortened: as §1

[15] = tested on: NCI-H1755
Procedure, shortened: as §1

[16] = tested on: ABC-1
Procedure, shortened: as §1

[17] = tested on: NCI-H727
Procedure, shortened: as §1

[18] = tested on: PC-3 [JPC-3]
Procedure, shortened: as §1

[19] = tested on: NCI-H2170
Procedure, shortened: as §1

With `O=c1[nH]c2ccccc2n1C1CCN(CCCC(c2ccc(F)cc2)c2ccc(F)cc2)CC1` [Pimozide] + NC(=O)Nc1cc(-c2cccc(F)c2)sc1C(=O)N[C@H]1CCCNC1 [AZD7762] (partner 0.2 µM) the relative viability ([1]; first compound 0.08 µM) was 0.701, the relative viability ([1]; first compound 0.253 µM) was 0.752 and the relative viability ([1]; first compound 0.8 µM) was 0.544. The relative viability ([1]; first compound 2.53 µM) was 0.675, the relative viability ([1]; first compound 8 µM) was 0.729 and the relative viability ([2]; first compound 0.08 µM) was 0.615. For the same molecule, the relative viability ([2]; first compound 0.253 µM) was 0.539, the relative viability ([2]; first compound 0.8 µM) was 0.625 and the relative viability ([2]; first compound 2.53 µM) was 0.693. For the same molecule, the relative viability ([2]; first compound 8 µM) was 0.549, the relative viability ([3]; first compound 0.08 µM) was 1.06 and the relative viability ([3]; first compound 0.253 µM) was 1.03. For the same molecule, the relative viability ([3]; first compound 0.8 µM) was 1, the relative viability ([3]; first compound 2.53 µM) was 1.09 and the relative viability ([3]; first compound 8 µM) was 1. It also gave a relative viability ([4]; first compound 0.08 µM) of 0.553, a relative viability ([4]; first compound 0.253 µM) of 0.36 and a relative viability ([4]; first compound 0.8 µM) of 0.352. The relative viability ([4]; first compound 2.53 µM) was 0.263, the relative viability ([4]; first compound 8 µM) was 0.28 and the relative viability ([5]; first compound 0.253 µM) was 0.348. It also gave a relative viability ([5]; first compound 0.8 µM) of 0.271, a relative viability ([5]; first compound 2.53 µM) of 0.328 and a relative viability ([5]; first compound 8 µM) of 0.402. The relative viability ([6]; first compound 0.08 µM) was 0.659, the relative viability ([6]; first compound 2.53 µM) was 0.443 and the relative viability ([6]; first compound 8 µM) was 0.524. For the same molecule, the relative viability ([7]; first compound 0.08 µM) was 0.757, the relative viability ([7]; first compound 0.253 µM) was 0.732 and the relative viability ([7]; first compound 0.8 µM) was 0.701. It also gave a relative viability ([7]; first compound 2.53 µM) of 0.641, a relative viability ([7]; first compound 8 µM) of 0.761 and a relative viability ([8]; first compound 0.08 µM) of 0.691. The relative viability ([8]; first compound 0.253 µM) was 0.635, the relative viability ([8]; first compound 0.8 µM) was 0.684 and the relative viability ([8]; first compound 2.53 µM) was 0.649. The relative viability ([8]; first compound 8 µM) was 0.766, the relative viability ([9]; first compound 0.08 µM) was 1.02 and the relative viability ([9]; first compound 0.253 µM) was 1.06. The relative viability ([9]; first compound 0.8 µM) was 1.01, the relative viability ([9]; first compound 2.53 µM) was 1.02 and the relative viability ([9]; first compound 8 µM) was 1. For the same molecule, the relative viability ([10]; first compound 0.08 µM) was 1.32, the relative viability ([10]; first compound 0.253 µM) was 0.806 and the relative viability ([10]; first compound 0.8 µM) was 1.26. The relative viability ([10]; first compound 2.53 µM) was 1.09, the relative viability ([10]; first compound 8 µM) was 1.04 and the relative viability ([11]; first compound 0.08 µM) was 0.46. It also gave a relative viability ([11]; first compound 0.253 µM) of 0.26, a relative viability ([11]; first compound 0.8 µM) of 0.245 and a relative viability ([11]; first compound 2.53 µM) of 0.409. For the same molecule, the relative viability ([11]; first compound 8 µM) was 0.532, the relative viability ([12]; first compound 0.08 µM) was 0.782 and the relative viability ([12]; first compound 0.253 µM) was 0.689. For the same molecule, the relative viability ([12]; first compound 0.8 µM) was 0.723, the relative viability ([12]; first compound 2.53 µM) was 0.736 and the relative viability ([12]; first compound 8 µM) was 0.744. The relative viability ([13]; first compound 0.08 µM) was 0.803, the relative viability ([13]; first compound 0.253 µM) was 0.831 and the relative viability ([13]; first compound 0.8 µM) was 0.76. It also gave a relative viability ([13]; first compound 2.53 µM) of 0.747, a relative viability ([13]; first compound 8 µM) of 0.881 and a relative viability ([14]; first compound 0.08 µM) of 0.363. For the same molecule, the relative viability ([14]; first compound 0.253 µM) was 0.23, the relative viability ([14]; first compound 0.8 µM) was 0.171 and the relative viability ([14]; first compound 2.53 µM) was 0.246. It also gave a relative viability ([14]; first compound 8 µM) of 0.376, a relative viability ([15]; first compound 0.08 µM) of 0.727 and a relative viability ([15]; first compound 0.253 µM) of 0.42. It also gave a relative viability ([15]; first compound 0.8 µM) of 0.47, a relative viability ([15]; first compound 2.53 µM) of 0.533 and a relative viability ([15]; first compound 8 µM) of 0.46. For the same molecule, the relative viability ([16]; first compound 0.253 µM) was 0.775, the relative viability ([16]; first compound 0.8 µM) was 0.817 and the relative viability ([16]; first compound 2.53 µM) was 0.583. It also gave a relative viability ([16]; first compound 8 µM) of 0.509, a relative viability ([17]; first compound 0.08 µM) of 0.496 and a relative viability ([17]; first compound 0.253 µM) of 0.581. It also gave a relative viability ([17]; first compound 0.8 µM) of 0.596, a relative viability ([17]; first compound 2.53 µM) of 0.613 and a relative viability ([17]; first compound 8 µM) of 0.525. The relative viability ([18]; first compound 0.253 µM) was 0.719, the relative viability ([18]; first compound 0.8 µM) was 0.72 and the relative viability ([18]; first compound 2.53 µM) was 0.832. The relative viability ([18]; first compound 8 µM) was 0.751, the relative viability ([19]; first compound 0.08 µM) was 0.875 and the relative viability ([19]; first compound 0.253 µM) was 0.828. It also gave a relative viability ([19]; first compound 0.8 µM) of 0.85, a relative viability ([19]; first compound 2.53 µM) of 0.915 and a relative viability ([19]; first compound 8 µM) of 0.802.
With `Cc1cnc(-c2cnc(NCCNc3ccc(C#N)cn3)nc2-c2ccc(Cl)cc2Cl)[nH]1` + NC(=O)Nc1cc(-c2cccc(F)c2)sc1C(=O)N[C@H]1CCCNC1 [AZD7762] (partner 0.2 µM) the relative viability ([1]; first compound 0.08 µM) was 0.918, the relative viability ([1]; first compound 0.253 µM) was 0.683 and the relative viability ([1]; first compound 0.8 µM) was 0.703. The relative viability ([1]; first compound 2.53 µM) was 0.9, the relative viability ([2]; first compound 0.08 µM) was 0.579 and the relative viability ([2]; first compound 0.8 µM) was 0.557. It also gave a relative viability ([2]; first compound 2.53 µM) of 0.541, a relative viability ([3]; first compound 0.08 µM) of 1.24 and a relative viability ([3]; first compound 0.253 µM) of 1.21. For the same molecule, the relative viability ([3]; first compound 0.8 µM) was 1.04, the relative viability ([3]; first compound 2.53 µM) was 1.01 and the relative viability ([4]; first compound 0.08 µM) was 0.735. It also gave a relative viability ([4]; first compound 0.253 µM) of 0.379, a relative viability ([4]; first compound 0.8 µM) of 0.385 and a relative viability ([4]; first compound 2.53 µM) of 0.461. For the same molecule, the relative viability ([5]; first compound 0.08 µM) was 0.347, the relative viability ([5]; first compound 0.253 µM) was 0.316 and the relative viability ([5]; first compound 0.8 µM) was 0.365. For the same molecule, the relative viability ([5]; first compound 2.53 µM) was 0.392, the relative viability ([6]; first compound 0.08 µM) was 0.668 and the relative viability ([6]; first compound 0.8 µM) was 0.488. It also gave a relative viability ([6]; first compound 2.53 µM) of 0.521, a relative viability ([7]; first compound 0.08 µM) of 0.831 and a relative viability ([7]; first compound 0.253 µM) of 0.624. For the same molecule, the relative viability ([7]; first compound 0.8 µM) was 0.691, the relative viability ([7]; first compound 2.53 µM) was 0.577 and the relative viability ([8]; first compound 0.08 µM) was 0.818. It also gave a relative viability ([8]; first compound 0.253 µM) of 0.583, a relative viability ([8]; first compound 0.8 µM) of 0.575 and a relative viability ([8]; first compound 2.53 µM) of 0.506. For the same molecule, the relative viability ([9]; first compound 0.08 µM) was 1.03, the relative viability ([9]; first compound 0.253 µM) was 0.939 and the relative viability ([9]; first compound 0.8 µM) was 0.984. It also gave a relative viability ([9]; first compound 2.53 µM) of 1.02, a relative viability ([10]; first compound 0.08 µM) of 1.02 and a relative viability ([10]; first compound 0.8 µM) of 0.967. For the same molecule, the relative viability ([10]; first compound 2.53 µM) was 0.993, the relative viability ([11]; first compound 0.08 µM) was 0.439 and the relative viability ([11]; first compound 0.253 µM) was 0.341. It also gave a relative viability ([11]; first compound 0.8 µM) of 0.405, a relative viability ([11]; first compound 2.53 µM) of 0.364 and a relative viability ([12]; first compound 0.08 µM) of 0.873. The relative viability ([12]; first compound 0.253 µM) was 0.612, the relative viability ([12]; first compound 0.8 µM) was 0.689 and the relative viability ([12]; first compound 2.53 µM) was 0.79. For the same molecule, the relative viability ([13]; first compound 0.08 µM) was 0.852, the relative viability ([13]; first compound 0.253 µM) was 0.864 and the relative viability ([13]; first compound 0.8 µM) was 0.838. The relative viability ([13]; first compound 2.53 µM) was 0.78, the relative viability ([14]; first compound 0.08 µM) was 0.269 and the relative viability ([14]; first compound 0.253 µM) was 0.186. The relative viability ([14]; first compound 0.8 µM) was 0.15, the relative viability ([14]; first compound 2.53 µM) was 0.235 and the relative viability ([15]; first compound 0.08 µM) was 0.459. The relative viability ([15]; first compound 0.253 µM) was 0.445, the relative viability ([15]; first compound 0.8 µM) was 0.404 and the relative viability ([15]; first compound 2.53 µM) was 0.443. For the same molecule, the relative viability ([16]; first compound 0.253 µM) was 0.772, the relative viability ([16]; first compound 0.8 µM) was 0.771 and the relative viability ([16]; first compound 2.53 µM) was 0.862. It also gave a relative viability ([17]; first compound 0.08 µM) of 0.621, a relative viability ([17]; first compound 0.253 µM) of 0.547 and a relative viability ([17]; first compound 0.8 µM) of 0.574. For the same molecule, the relative viability ([17]; first compound 2.53 µM) was 0.651, the relative viability ([18]; first compound 0.08 µM) was 0.805 and the relative viability ([18]; first compound 0.253 µM) was 0.761. It also gave a relative viability ([18]; first compound 0.8 µM) of 0.799, a relative viability ([18]; first compound 2.53 µM) of 0.725 and a relative viability ([19]; first compound 0.08 µM) of 1.01. The relative viability ([19]; first compound 0.8 µM) was 0.774 and the relative viability ([19]; first compound 2.53 µM) was 0.695.
